Three molecules from paper PMC9554468, “Assessing potency and binding kinetics of soluble adenylyl cyclase (sAC) inhibitors to maximize therapeutic potential” (Frontiers in Physiology, 2022) can be followed below.

Where “and” joins values, the source holds several entries; their conditions need not be identical. Equal values may be shown once.

For this experiment, the target named is T1, sAC in 4-4 cells (HEK293 cells that stably overexpress sACt) (Rattus norvegicus, UniProt Q9Z286).
T1 construct: HEK293 cells that stably overexpress sACt; expressed in transfected cells
T1 sequence (Q9Z286 1-469 limits assumed): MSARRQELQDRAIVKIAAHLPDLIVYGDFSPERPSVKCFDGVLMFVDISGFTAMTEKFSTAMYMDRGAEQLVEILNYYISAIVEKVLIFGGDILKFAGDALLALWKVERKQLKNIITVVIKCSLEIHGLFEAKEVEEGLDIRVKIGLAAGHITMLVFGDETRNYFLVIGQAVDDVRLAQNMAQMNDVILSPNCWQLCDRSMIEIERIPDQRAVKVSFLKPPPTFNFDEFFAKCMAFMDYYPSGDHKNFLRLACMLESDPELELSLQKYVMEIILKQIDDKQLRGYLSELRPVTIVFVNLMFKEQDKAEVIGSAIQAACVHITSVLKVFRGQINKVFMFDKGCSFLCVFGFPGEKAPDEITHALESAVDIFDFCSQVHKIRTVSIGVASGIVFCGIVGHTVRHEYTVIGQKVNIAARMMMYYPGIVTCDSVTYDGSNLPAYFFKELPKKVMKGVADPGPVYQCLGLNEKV
The experiment is described as follows: cellular adenylyl cyclase activity assay (cAMP accumulation) in sAC overexpressing 4-4 cells. It counts as cell-based, human. Particulars: 10 min preincubation, 500 μM IBMX 5 min, 37°C. The protocol: For the assay, 1 × 10^5 4-4 cells were seeded in each well of a 24-well plate and incubated for 24 h in DMEM+10% FBS media at 37°C/5% CO2. One hour before the assay the media was aspirated and replaced with 300 μL fresh media. Cells were preincubated with sAC inhibitor at the indicated concentrations or vehicle (0.7% DMSO) for 10 min at 37°C. Intracellular cAMP accumulation was initiated by addition of 500 μM IBMX (Sigma-Aldrich), and cAMP was allowed to accumulate for 5-min. Intracellular cAMP was quantitated using the Direct cAMP Elisa kit (Enzo Life Sciences) following manufacturer’s instructions. GraphPad Prism (www.graphpad.com, version 9.3.1) was used for curve fitting of the concentration-response data and determination of IC50 values.
In addition to how tightly an inhibitor binds its target, efficacy against an intracellular enzyme target is also determined by factors that are present only in the context of cells, such as membrane permeability, non-specific protein binding and compound stability in media and inside cells.
(Changes in cAMP serve as a functional read-out for many G protein-coupled receptors.)
For orientation: IC50 means the point on the concentration scale where inhibition reaches its midpoint. `Cn1cc(Cc2ccccc2OCCN2CCOCC2)c(-c2cc(Cl)nc(N)n2)n1` [TDI-11155]: the IC50 is 15.7 nM and 16 nM.

As for `COC(=O)[C@H]1COCCN1CCOc1ccccc1Cc1cn(C(F)F)nc1-c1cc(Cl)nc(N)n1` [TDI-11891], the IC50 was found to be 2.3 nM. On to `COC(=O)[C@@H]1COCCN1CCOc1ccccc1Cc1cn(C(F)F)nc1-c1cc(Cl)nc(N)n1` [TDI-11893], for which the IC50 was 19.4 nM and 19 nM.
